# Reference: US6395787B1, “Ocular hypotensive lipids” (Allergan Sales, Inc., priority 2000, dated 2002)
# Legend:
# [1] = system: rabbit jugular vein segment; test: Vasorelaxation of histamine precontracted rabbit jugular vein segment
# Procedure: (§1) Smooth muscle tension of isolated tissues was measured isometrically with force displacement transducers (Grass FT-03) and recorded on Grass Polygraphs (Models 7G and 79E). The organ baths contained Krebs solution maintained at 37° C. and gassed with 95% 02/5% CO2 to give a pH of 7.4. The Krebs solution had the following composition (mM): NaCl, 118.0; KCl, 4.7; KH2PO4, 1.2; CaCl2, 1.9; MgSO4, 1.18; NaHCO3, 25.0; glucose, 11.7; indomethacin, 0.001.
# New Zealand albino rabbit of either sex, weighing 2-4 kg, were injected with 1000 U heparin into the marginal ear vein and then sacrificed by CO2 gas. The external jugular veins were cleared of fat and adherent connective tissue and removed. The veins were transected and each ring of 3-4 mm length was suspended between two metal hooks in a jacketed organ bath. The tissues were equilibrated for 1 hr under 0.75 g tension, which was readjusted as the tissues relaxed. Single doses of histamine, 10^−5 M then 2-3×10^−6 M, with washing after each dose, were given to contract the tissue and establish responsiveness. The TP-receptor antagonist SQ29548, (Ogletree et al. (1985) J. Pharmacol. Exp. Ther. 234 435-441) at (10^−6 M), was applied for 5 min and then histamine 2-3×10^−6 M was added to elicit the contractile response. After 30 min of pretreatment with the histamine, the relaxant response was tested by adding cumulative doses of the test compounds with 10^−8 M to 10^−7 M PGE2 at the end of each dose-response curve as a reference. A recovery period of 30-50 min was allowed after wash-out of the tissues. Relaxant activity was calculated as % of the control tone elicited by histamine.
# [2] = molecular target: recombinant feline FP receptor (Felis catus, UniProt A0ABI7XJ69); test: Radioligand binding competition vs 3H-17-phenyl PGF2α, recombinant feline FP receptor; set-up: species or system cat
# Procedure: Plasma membrane preparations of HEK 293 cells stably transfected with the human or feline FP receptor were obtained as follows. Cells washed with TME buffer were scraped from the bottom of the flasks and homogenized for 30 sec using a Brinkman PT 10/35 polytron. TME buffer was added as necessary to achieve a 40 ml volume in the centrifuge tubes. […] The cell homogenate was centrifuged at 19,000 rpm for 20 min at 4-6° C. using a Beckman Ti-60 rotor. The pellet was then resuspended in TME buffer to provide a final protein concentration of 1 mg/ml, as determined by Biorad assay. […] Incubations were for 60 min at 25° C. and were terminated by the addition of 4 ml of ice-cold 50 mM TRIS-HCl followed by rapid filtration through Whatman GF/B filters and three additional 4 ml washes in a cell harvester (Brandel).
# [3] = system: dog ocular surface hyperemia; test: Dog ocular surface hyperemia; assay type: in vivo; set-up: key: <1 trace 0.5; 1 mild 1; moderate 2; severe 3; conditions: throughout the 24 hr experimental period, trace for vehicle
# Procedure: Ocular surface hyperemia was visually assessed and scored according to a system typically used clinically.
# Ocular surface hyperemia was evaluated at the same time points as intraocular pressure measurement. It should be noted that untreated dog eyes frequently have a pink/red tone. Thus, values of trace or even mild are not necessarily out of the normal range.
# dog intraocular pressure = test: Intraocular pressure in conscious Beagle dogs; assay type: in vivo; conditions: 0.1% dose, topical
# Procedure: Intraocular pressure studies in dogs involved pneumatonometry performed in conscious, Beagle dogs of both sexes (10-15 kg). The animals remained conscious throughout the study and were gently restrained by hand. Drugs were administered topically to one eye as a 25 μL volume drop, the other eye received 25 μL vehicle (0.1% polysorbate 80:10 mM TRIS) as a control. 0.1% proparacaine was used for corneal anesthesia during tonometry. Intraocular pressure was determined just before drug administration and at 2, 4 and 6 hr thereafter on each day of the 5 day study. Drug was administered immediately after the first IOP reading.
# [4] = system: feline iris sphincter smooth muscle; test: Isolated cat iris sphincter smooth muscle contraction; conditions: for % Maximal contractile response mean χ ± SEM: reference contraction 10^−7 M PGF2α, n = 4
# Procedure: as §1
# Adult domestic cats were sacrificed by intravenous overdose of sodium pentobarbital (Anthony, Arcadia, Calif.). The eyes were enucleated immediately and placed on ice. The iris sphincter muscle was mounted vertically under 50 to 100 mg tension in a jacketed 10 ml organ bath. A 60 min stabilization period was allowed before commencing each experiment. Activity was determined as contractile responses. Compounds were added cumulatively to the organ bath and at least 30 min was allowed for recovery, after complete wash-out, and return to baseline tension. […] No more than two compounds were tested in each tissue.
# recombinant feline FP receptor, sequence (A0ABI7XJ69 entry or part of it): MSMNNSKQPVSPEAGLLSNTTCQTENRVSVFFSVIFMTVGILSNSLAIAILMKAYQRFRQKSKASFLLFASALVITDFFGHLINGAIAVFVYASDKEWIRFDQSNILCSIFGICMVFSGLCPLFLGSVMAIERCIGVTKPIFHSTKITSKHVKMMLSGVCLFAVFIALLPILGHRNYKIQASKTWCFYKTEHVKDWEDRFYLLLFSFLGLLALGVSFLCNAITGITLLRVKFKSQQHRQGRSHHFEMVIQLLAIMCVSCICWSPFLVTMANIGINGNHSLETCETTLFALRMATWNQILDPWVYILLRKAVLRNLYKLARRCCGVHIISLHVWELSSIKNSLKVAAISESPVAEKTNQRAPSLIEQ
compound,measurement,setting,value
"CCCCC[C@H](O)/C=C/[C@@H]1[C@@H](C/C=C\CCCC(=O)NCCO)[C@@H](O)C[C@H]1O [PGF2α 1-ethanolamide, (5Z,8α,9α,11α,13E,15S)-9,11,15-trihydroxy-N-(2-hydroxyethyL)prosta-5,13-dien-1-amide]",EC50,"[1]; Oryctolagus cuniculus, histamine precontracted, read-out: E.C.50, vasorelaxation of the precontracted rabbit jugular vein segment",2000 nM
same,endothelium dependent vasorelaxation,[1]; histamine precontracted rabbit jugular vein segment,relatively little activity
same,affinity for the feline receptor,[2]; radioligand binding,only weak affinity
same,IC50,"[2]; read-out: inhibitory concentration50 (I.C.50), radioligand binding",882 nM
same,ocular surface hyperemia,[3],mild
same,duration of intraocular pressure effect,dog intraocular pressure,persisted over the entire 24 hr experimental period
same,effect on intraocular pressure,dog intraocular pressure,marked and highly significant decrease
same,% Maximal contractile response mean χ ± SEM,[4]; 10^−5 M,126.0 ± 3.6%
same,% Maximal contractile response mean χ ± SEM,[4]; 10^−6 M,119.2 ± 6.0%
same,% Maximal contractile response mean χ ± SEM,[4]; 10^−7 M,77 ± 5.5%
same,% Maximal contractile response mean χ ± SEM,[4]; 10^−8 M,2.7 ± 1.7%
same,EC50,"[4]; Felis catus, isolated feline iris sphincter, read-out: effective concentration (E.C.)50, contraction of cat iris sphincter smooth muscle",58 nM
same,threshold concentration,[4]; isolated feline iris sphincter contraction,~10 nM
